For data set [1], the system named is rat. Conditions: Prenatal developmental toxicity study, sprague dawley, Oral, Gavage/Intubation, dose end: 15 GD.
The test system of the next data set is rabbit. Conditions: Prenatal developmental toxicity study; new zealand white; Oral; Gavage/Intubation; dose end: 18 GD; group: maternal; systemic / in life observation / clinical signs / general motor disturbances + systemic / in life observation / clinical signs / partial ….
The subject of data set [2] is rat. Conditions: Subchronic dermal toxicity, sprague dawley, Topical, dose end: 91 day, group: systemic, systemic / in life observation / clinical signs / erythema.
For data set [3], the system named is rat. The note with it: Subchronic oral toxicity in rodents, sprague dawley, Feed, dose end: 90 day, group: systemic, systemic / pathology microscopic / kidney / basophilia + systemic / pathology microscopic / kidney / dilatation + systemic / pathology ….
The subject of data set [4] is rat. Conditions: Combined chronic toxicity/carcinogenicity, sprague dawley, Oral, Feed, dose end: 2 year, group: systemic.
The subject of data set [5] is dog. Conditions: Subchronic oral toxicity in nonrodent, beagle, Feed, dose end: 13 week, group: systemic, systemic / in life observation / body weight / body weight + systemic / in life observation / body weight / body weight gain + systemic / ….
Data set [6] deals with rat. Conditions: Prenatal developmental toxicity study, sprague dawley, Oral, Gavage/Intubation, dose end: 15 GD. The source holds these as a separate data set.
The test system of data set [7] is mouse. Conditions: Subchronic oral toxicity in rodents, cd1, Feed, dose end: 14 week, group: systemic.
Data set [8] has as its system rat. The note with it: Subchronic oral toxicity in rodents, sprague dawley, Feed, dose end: 13 week, group: systemic.
The subject of data set [9] is rat. Conditions: Chronic toxicity; sprague dawley; Oral; Gavage/Intubation; dose end: 6 month; group: systemic; systemic / clinical chemistry / creatinine / creatinine.
The subject of data set [10] is dog. Conditions: Subchronic oral toxicity in nonrodent, beagle, Gavage/Intubation, dose end: 6 month, group: systemic.
Data set [11] deals with dog. Conditions: Chronic toxicity, beagle, Oral, Gavage/Intubation, dose end: 52 week, group: systemic.
In data set [12] the test system is rat. Conditions: Sub-acute repeat dose toxicity; sprague dawley; Oral; Gavage/Intubation; dose end: 6 week; group: systemic; systemic / organ weight / liver / absolute + systemic / organ weight / liver / relative to body weight + systemic / pathology microscopic / ….
The test system of a further data set is primate. Conditions: Subchronic oral toxicity in nonrodent, macaque, Gavage/Intubation, dose end: 7 week, group: systemic, systemic / clinical chemistry / alkaline phosphatase (alp/alk) / alkaline phosphatase (alp/alk) + systemic / organ weight / liver / absolute….
Data set [13] relates to mouse. The note with it: Subchronic oral toxicity in rodents, cd1, Gavage/Intubation, dose end: 13 week, group: systemic.
The subject of data set [14] is rat. Conditions: Subchronic oral toxicity in rodents, sprague dawley, Gavage/Intubation, dose end: 13 week, group: systemic.
Data set [15] has as its system dog. The note with it: Subchronic oral toxicity in nonrodent, beagle, Gavage/Intubation, dose end: 13 week, group: systemic.
The subject of data set [16] is rat. Conditions: Subchronic oral toxicity in rodents, wistar, Gavage/Intubation, dose end: 13 week, group: systemic.
The mark [17] stands for this setting: group: developmental, developmental / developmental malformation / bone / bent + developmental / developmental malformation / bone / unossified + developmental / ….
[18] abbreviates: group: maternal, systemic / in life observation / body weight / body weight + systemic / in life observation / clinical signs / reduced activity + systemic….
Setting [19] is: systemic / pathology microscopic / kidney / dilatation + systemic / pathology microscopic / kidney / fibrosis + systemic / clinical ….
Where [20] appears, read: group: developmental, developmental / developmental malformation / bone / incomplete ossification + developmental / developmental malformation / interparietal / ….
The mark [21] stands for this setting: group: maternal, systemic / in life observation / food consumption / food consumption + systemic / pathology gross / kidney / enlarged.
The mark [22] stands for this setting: systemic / clinical chemistry / creatinine / creatinine.
The mark [23] stands for this setting: systemic / clinical chemistry / creatinine / creatinine + systemic / hematology / hematocrit (hct) / hematocrit (hct) + systemic / ….
The mark [24] stands for this setting: systemic / clinical chemistry / creatinine / creatinine + systemic / hematology / reticulocyte / reticulocyte + systemic / organ weight / ….
[25] abbreviates: systemic / organ weight / adrenal gland / relative to body weight + systemic / organ weight / heart / absolute + systemic / clinical ….
[26] abbreviates: systemic / organ weight / heart / absolute.
The mark [27] stands for this setting: systemic / organ weight / heart / absolute + systemic / clinical chemistry / alkaline phosphatase (alp/alk) / alkaline phosphatase (alp/alk….
Where [28] appears, read: systemic / clinical chemistry / albumin / albumin + systemic / clinical chemistry / protein / protein + systemic / hematology / platelet / ….
Setting [29] is: systemic / pathology microscopic / adrenal gland / vacuolization + systemic / pathology microscopic / liver / eosinophilic focus + systemic….
Setting [30] is: systemic / clinical chemistry / [other] / [other] + systemic / clinical chemistry / alanine aminotransferase (alt/sgpt) / alanine ….
Setting [31] is: systemic / hematology / mean corpuscular (cell) volume (mcv) / mean corpuscular (cell) volume (mcv) + systemic / hematology / mean ….
The mark [32] stands for this setting: systemic / clinical chemistry / alanine aminotransferase (alt/sgpt) / alanine aminotransferase (alt/sgpt) + systemic / in life observation….
Where [33] appears, read: systemic / organ weight / adrenal gland / absolute.
Setting [34] is: systemic / clinical chemistry / albumin / albumin + systemic / clinical chemistry / chloride / chloride + systemic / clinical chemistry / ….
[35] abbreviates: systemic / clinical chemistry / albumin / albumin + systemic / clinical chemistry / protein / protein + systemic / in life observation / ….

In general, LOAEL refers to the lowest dose or exposure tested at which an adverse effect was seen. One may read the NOAEL as the highest tested level that showed no adverse finding. For `N#CN=C([S-])[S-].[Na+].[Na+]` [Disodium cyanodithioimidocarbonate], the LOAEL is 18 mg/kg/day in the data set on rat [1] (group: developmental, developmental / developmental malformation / bone / bent + developmental / developmental malformation / bone / unossified); 18 mg/kg/day in the data set on rat [1] (group: maternal, systemic / in life observation / body weight / body weight + systemic / in life observation / clinical signs / reduced activity); 10 mg/kg/day with rabbit; 25 mg/kg/day in the data set on rat [2]. Besides, the LEL in the data set with rat [1] (setting [17]) was 18 mg/kg/day; in the data set with rat [1] (setting [18]), 18 mg/kg/day; in the data set on rabbit, 10 mg/kg/day; in the data set on rat [2] it was 25 mg/kg/day. Moreover, the NEL with rat [1] (setting [17]) was 6 mg/kg/day; with rat [1] (setting [18]) it was 6 mg/kg/day; in the data set on rabbit it was 3 mg/kg/day; in the data set on rat [2] it was < 25 mg/kg/day. For the same compound, the NOAEL in the data set on rat [1] (setting [17]) was 6 mg/kg/day; in the data set on rat [1] (setting [18]), 6 mg/kg/day; in the data set on rabbit it was 3 mg/kg/day; in the data set with rat [2], < 25 mg/kg/day.
In the case of `CCNc1nc(NC(C)C)[nH]c(=O)n1` [2-Hydroxyatrazine], the LEL in the data set with rat [3] amounted to 18.9 mg/kg/day; with rat [4] (systemic / pathology microscopic / kidney / dilatation + systemic / pathology microscopic / kidney / fibrosis + systemic / pathology gross…) it was 7.75 mg/kg/day; in the data set on dog [5], 59.6 mg/kg/day; in the data set with rat [6] (setting [20]), 125 mg/kg/day; in the data set on rat [6] (setting [21]), 125 mg/kg/day. Besides, the LOAEL in the data set with rat [3] amounted to 18.9 mg/kg/day; in the data set on rat [4] (systemic / pathology microscopic / kidney / dilatation + systemic / pathology microscopic / kidney / fibrosis), 7.75 mg/kg/day; in the data set with dog [5], 59.6 mg/kg/day; with rat [6] (setting [20]), 125 mg/kg/day; with rat [6] (group: maternal, systemic / in life observation / food consumption / food consumption), 125 mg/kg/day. Also, the NEL with rat [3] worked out at 6.3 mg/kg/day; with rat [4] (setting [19]), 0.962 mg/kg/day; with dog [5], 5.8 mg/kg/day; in the data set on rat [6] (setting [20]), 25 mg/kg/day; in the data set on rat [6] (setting [21]), 25 mg/kg/day. Besides, the no observed adverse effect level (NOAEL) came out at 6.3 mg/kg/day in the data set with rat [3]; 0.962 mg/kg/day in the data set on rat [4] (setting [19]); 5.8 mg/kg/day with dog [5]; 25 mg/kg/day with rat [6] (setting [20]); 25 mg/kg/day with rat [6] (setting [21]).
For `CC(=O)c1ccc2c(c1)[C@H](NC(=O)c1ccc(F)cc1)[C@@H](O)C(C)(C)O2` [Carabersat], the LEL with mouse [7] (setting [22]) turned out to be 200 mg/kg/day; in the data set with rat [8] (setting [22]), 20 mg/kg/day; in the data set on rat [9] it was 200 mg/kg/day; with dog [10] (systemic / organ weight / adrenal gland / relative to body weight + systemic / clinical chemistry / alkaline phosphatase (alp/alk) / …) it was 200 mg/kg/day; in the data set on dog [11] (setting [26]) it was 20 mg/kg/day. Besides, the lowest-observed-adverse-effect level (LOAEL) is > 2000 mg/kg/day in the data set on mouse [7] (setting [23]); > 2000 mg/kg/day in the data set with rat [8] (setting [24]); > 2000 mg/kg/day in the data set with rat [9]; > 1000 mg/kg/day in the data set with dog [10] (setting [25]); > 1000 mg/kg/day with dog [11] (setting [27]). Besides, the NEL was 20 mg/kg/day in the data set on mouse [7] (setting [23]); < 20 mg/kg/day with rat [8] (setting [22]); 20 mg/kg/day in the data set on rat [9]; 20 mg/kg/day in the data set on dog [10] (systemic / organ weight / adrenal gland / relative to body weight + systemic / organ weight / heart / absolute); < 20 mg/kg/day in the data set on dog [11] (setting [26]). Besides, the NOAEL with mouse [7] (setting [23]) was ≥ 2000 mg/kg/day; with rat [8] (setting [24]) it was ≥ 2000 mg/kg/day; with rat [9], ≥ 2000 mg/kg/day; in the data set on dog [10] (setting [25]), ≥ 1000 mg/kg/day; in the data set on dog [11] (setting [27]) it was ≥ 1000 mg/kg/day.
With `CCc1cc(SCc2sc(-c3ccc(C(F)(F)F)cc3)nc2CN2CCN(c3ccc(OC)cc3)CC2)ccc1OCC(=O)O`, the LEL in the data set with rat [12] was determined as 5 mg/kg/day; with primate it was 5 mg/kg/day; in the data set with mouse [13] (setting [29]), 10 mg/kg/day; in the data set on rat [14] (setting [31]), 30 mg/kg/day. The LOAEL in the data set on rat [12] was > 100 mg/kg/day; with primate, > 100 mg/kg/day; in the data set with mouse [13] (setting [28]), > 1000 mg/kg/day; with rat [14] (setting [30]), > 1000 mg/kg/day. In addition, the NEL in the data set with rat [12] is < 5 mg/kg/day; in the data set with primate, < 5 mg/kg/day; in the data set on mouse [13] (setting [29]), < 10 mg/kg/day; in the data set with rat [14] (setting [31]), < 30 mg/kg/day. In addition, the NOAEL with rat [12] was ≥ 100 mg/kg/day; in the data set with primate, ≥ 100 mg/kg/day; with mouse [13] (setting [28]) it was ≥ 1000 mg/kg/day; with rat [14] (setting [30]) it was ≥ 1000 mg/kg/day.
As to `CCN(C(=O)c1cc(C)cc(OC[C@H](C)Nc2ccncc2)c1)C(C)C.Cc1ccc(S(=O)(=O)O)cc1`, in the data set with dog [15] (setting [32]), the LOAEL was > 20 mg/kg/day and the no-observed-adverse-effect level (NOAEL) was ≥ 20 mg/kg/day. Also, in the data set with dog [15] (setting [33]), the LEL is 4 mg/kg/day and the NEL was < 4 mg/kg/day. Besides, in the data set with rat [16] (setting [34]), the lowest observed adverse effect level (LOAEL) is > 40 mg/kg/day and the no observed adverse effect level (NOAEL) is ≥ 40 mg/kg/day. Also, in the data set with rat [16] (setting [35]), the LEL is 12 mg/kg/day and the NEL is < 12 mg/kg/day.

Source of the values: EPA's ToxRefDB 2.
